Patent publication US8304223B2, “Isoforms of pig liver esterase” (Enzymicals AG, priority 2007, dated 2012)
Like-named read-outs stand apart in the source and are kept apart here.

Tests used:
PLE 3 = assay: Influence of inhibitors, remaining activity by pNPA assay; type: biochemical, pig; settings: 25° C.
Experimental: (§1) Esterase activity was determined spectrophotometrically in sodium phosphate buffer (50 mM) by means of p-nitrophenyl acetate (10 mM, dissolved in dimethyl sulfoxide) as substrate. The amount of p-nitrophenol generated was determined at a wavelength of 410 nm (ε=15*10^3 M^−1 cm^−1) at RT and pH 7.5. 1 unit (U) is defined as the amount of enzyme capable of converting 1 μM p-nitrophenol per minute under analytical conditions (Krebsfänger, N., et. al., (1998) Enzyme Microb. Technol, 22, 641-646).
(§2) The inhibitability of the new PLE variants was determined by treating the crude extracts with any of three esterase inhibitors. […] Samples were taken at certain points in time and the remaining esterase activity was determined by the pNPA assay.

PLE 4 = assay: as above; type: biochemical, pig; settings: 25° C.
Experimental: as §1, §2

PLE 5 = assay: as above; type: biochemical, pig; settings: 25° C.
Experimental: as §1, §2

PLE 2 = molecular target: T1, PLE 2 (Sus scrofa, UniProt Q29550, F477A/K481R/L479F); assay: biochemical; type: biochemical, pig; settings: 25° C.; for Remaining activity in %: inhibitor 1 mM; for remaining activity at 10 µM: inhibitor 0.01 mM
T1 construct: made in house; host or cells: E. coli Origami (DE3) with pGro7 (GroEL/GroES coexpression), crude extract
T1 sequence (Q29550 19-562 F477A/L479F/K481R): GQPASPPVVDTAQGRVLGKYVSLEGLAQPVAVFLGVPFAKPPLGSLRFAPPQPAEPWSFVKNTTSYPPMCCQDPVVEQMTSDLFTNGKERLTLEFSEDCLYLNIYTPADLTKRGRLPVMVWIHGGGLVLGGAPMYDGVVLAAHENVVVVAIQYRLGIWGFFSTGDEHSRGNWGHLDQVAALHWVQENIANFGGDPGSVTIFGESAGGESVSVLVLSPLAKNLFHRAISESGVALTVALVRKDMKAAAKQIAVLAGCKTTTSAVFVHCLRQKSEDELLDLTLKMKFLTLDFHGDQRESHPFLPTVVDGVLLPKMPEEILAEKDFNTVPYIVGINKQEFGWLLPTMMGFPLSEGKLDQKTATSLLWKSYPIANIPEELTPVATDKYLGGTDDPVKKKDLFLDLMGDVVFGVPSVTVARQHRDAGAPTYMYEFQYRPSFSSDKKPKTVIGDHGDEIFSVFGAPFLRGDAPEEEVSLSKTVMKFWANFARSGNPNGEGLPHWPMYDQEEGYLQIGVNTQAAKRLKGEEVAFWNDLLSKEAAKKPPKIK
Experimental: as §1, §2

PLE 1 (γ-PLE) = molecular target: T2, PLE 1 (γ-PLE) (Sus scrofa, UniProt Q29550); assay: biochemical; type: biochemical, pig; settings: 25° C.; for Remaining activity in %: inhibitor 1 mM; for remaining activity at 10 µM: inhibitor 0.01 mM
T2 construct: made in house; host or cells: E. coli Origami (DE3) with pGro7 (GroEL/GroES coexpression), crude extract
T2 sequence (Q29550 with tags, fused parts or gaps): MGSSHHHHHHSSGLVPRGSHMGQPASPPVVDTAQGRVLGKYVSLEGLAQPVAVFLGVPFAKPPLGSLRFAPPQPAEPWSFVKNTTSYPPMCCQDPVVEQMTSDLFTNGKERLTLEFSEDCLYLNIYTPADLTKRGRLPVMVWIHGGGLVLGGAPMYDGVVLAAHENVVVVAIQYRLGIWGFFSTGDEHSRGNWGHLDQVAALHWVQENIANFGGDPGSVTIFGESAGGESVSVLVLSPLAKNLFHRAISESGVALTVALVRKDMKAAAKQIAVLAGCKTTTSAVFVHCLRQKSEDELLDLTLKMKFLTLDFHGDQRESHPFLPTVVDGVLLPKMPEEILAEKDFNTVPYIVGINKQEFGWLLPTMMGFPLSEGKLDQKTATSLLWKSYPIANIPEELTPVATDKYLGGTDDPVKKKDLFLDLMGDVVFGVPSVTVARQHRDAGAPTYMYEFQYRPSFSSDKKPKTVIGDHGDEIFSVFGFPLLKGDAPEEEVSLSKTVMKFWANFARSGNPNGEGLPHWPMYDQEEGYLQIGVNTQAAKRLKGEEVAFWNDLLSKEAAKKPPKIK
Experimental: as §1, §2

[1] = pH stat activity with achiral ester ethyl acetate; type: biochemical; settings: purified enzyme, pH stat at 37° C. and pH 7.5, 10 min
Experimental: (§3) Esterase substrate specificity was analyzed at constant pH. A known amount of esterase was added to an emulsion (20 mL) containing an ester substrate (5% (v/v); tributyrin, ethyl acetate, triolein or methyl butyrate) and gum arabic (2% (w/v)) at 37° C. The acid liberated was counter titrated automatically in a pH statiometer (Schott, Mainz, Germany) with 0.01 N NaOH in order to maintain a constant pH of 7.5. 1 unit (U) is defined as the amount of enzyme capable of generating 1 μM acid per minute under analytical conditions.

[2] = pH stat activity with achiral ester ethyl caprylate; type: biochemical; settings: purified enzyme, pH stat at 37° C. and pH 7.5, 10 min
Experimental: Esterase substrate specificity was analyzed at constant pH. […] The acid liberated was counter titrated automatically in a pH statiometer (Schott, Mainz, Germany) with 0.01 N NaOH in order to maintain a constant pH of 7.5. 1 unit (U) is defined as the amount of enzyme capable of generating 1 μM acid per minute under analytical conditions.

[3] = Native PAGE with Fast Red activity staining; type: biochemical; settings: crude extracts, Fast Red staining with α-naphthyl acetate
Experimental: A mixture containing the crude extract of recombinantly produced PLE (5-15 μL, corresponding to 0.05-0.15 U of pNPA analysis) was mixed with buffer solution (20% (w/v) glycerol; 0.0025% (w/v) bromophenol blue in dH2O) (5-10 μL). Aliquots thereof were separated on a native polyacrylamide gel (7.5%). For activity staining, the gel was incubated in a mixture of freshly prepared α-naphthyl acetate and Fast Red. Formation of a red complex between α-naphthol generated and Fast Red indicated hydrolytic activity of the esterase. (Krebsfänger, N., et. al., (1998) Enzyme Microb. Technol, 22, 641-646). The gel was then stained with Coomassie Brilliant Blue.
Esterase activity was checked by applying the crude extracts to a native gel which was then incubated in Fast Red solution with α-naphthyl acetate as substrate. This was followed by Coomassie staining (FIG. 4: Native PAGE of the crude extracts of PLE2, clone 12, PLE3, PLE4, PLE5, γPLE and the E. coli Origami pGro7 wild type (negative control). Left-hand side: Fast Red staining with α-naphthyl acetate, right-hand side: subsequent Coomassie Brilliant Blue staining).

[4] = pH stat activity with achiral ester triolein; type: biochemical; settings: purified enzyme, pH stat at 37° C. and pH 7.5, 10 min
Experimental: as §3

[5] = pNPA assay of esterase activity (crude extracts); type: biochemical; settings: crude extract, N-terminal His6 tag
Experimental: The chaperones were coexpressed with the PLE isoenzymes in 150 ml of LB medium containing 20 μg mL^−1 chloramphenicol and 50 μg mL^−1 ampicillin for plasmid selection. Chaperone expression was immediately initiated by adding 1 mg mL^−1 L-arabinose. PLE production was induced at OD600=0.5 by adding 40 μM IPTG. The cells were removed by centrifugation after 24 h, resuspended in 10 ml of sodium phosphate buffer (50 mM, pH 7.5) and disrupted using ultrasound. Cell debris was removed by centrifugation, and the supernatant was used for further experiments (crude cell extract). Protein content and esterase activity were determined according to Bradford or using the pNPA assay.
as §1

[6] = Kinetic resolution of the racemates of substrate 1; type: biochemical; settings: calculated according to Chen et al.
Experimental: (§4) Hydrolysis was carried out in 1.5 ml reaction vessels in a thermomixer (Thermomixer comfort Eppendorf, Hamburg, Germany) at 37° C. 0.5 U esterase crude extract (based on the pNPA assay) were used for 1 ml of substrate solution (10 mM in sodium phosphate buffer pH 7.5, 50 mM). The reaction was stopped by extracting the mixture with dichloromethane, and the organic phase was dried over anhydrous sodium sulfate.
(§5) Enantiomeric purity and conversion were determined by gas chromatography. Enantioselectivity of the variant enzymes was calculated according to Chen et al. (C. S. Chen, Y. Fujimoto, G. Girdaukas, C. J. Sih, J. Am. Chem. Soc. 1982, 104, 7294.).
(§6) For a more detailed description of the synthesis of the substrates and the retention times in GC analysis, see Musidlowska-Persson, A. and Bornscheuer, U. T., “Substrate Specificity of the γ-isoenzyme of recombinant pig liver esterase towards acetates of secondary alcohols” J. Mol. Catal. B. Enzym. 2002, 19-20, 129-133.

[7] = substrate 4; literature data (*); cited from earlier work
[8] = pH stat activity with achiral ester methyl butyrate; type: biochemical; settings: purified enzyme, pH stat at 37° C. and pH 7.5, 10 min
Experimental: as §3

[9] = Kinetic resolution of the racemates of substrate 3; type: biochemical; settings: calculated according to Chen et al.
Experimental: as §4, §5, §6

[10] = pH stat activity with achiral ester tributyrin; type: biochemical; settings: purified enzyme, pH stat at 37° C. and pH 7.5, 10 min
Experimental: as §3

[11] = Kinetic resolution of the racemates of substrate 2; type: biochemical; settings: calculated according to Chen et al.
Experimental: as §4, §5, §6

[F-].[Na+] [NaF, sodium fluoride]
Remaining activity in % (PLE 3; inhibitor 1 mM, 5 min): 44%
Remaining activity in % (PLE 3; inhibitor 1 mM, 30 min): 46%
Remaining activity in % (PLE 4; inhibitor 1 mM, 5 min): 64%
Remaining activity in % (PLE 4; inhibitor 1 mM, 30 min): 66%
Remaining activity in % (PLE 5; inhibitor 1 mM, 5 min): 83%
Remaining activity in % (PLE 5; inhibitor 1 mM, 30 min): 88%
Remaining activity in % (PLE 2; 5 min): 17%
Remaining activity in % (PLE 2; 30 min): 15%
Remaining activity in % (PLE 1 (γ-PLE); 5 min): 20%
Remaining activity in % (PLE 1 (γ-PLE); 30 min): 21%

O=S(=O)(F)Cc1ccccc1 [Phenylmethylsulfonyl fluoride (PMSF), phenylmethylsulfonyl fluoride]
Remaining activity in % (PLE 3; inhibitor 0.01 mM, 1 min): 77%
Remaining activity in % (PLE 3; inhibitor 0.01 mM, 5 min): 51%
Remaining activity in % (PLE 3; inhibitor 0.01 mM, 30 min): 7%
Remaining activity in % (PLE 3; inhibitor 0.01 mM, 60 min): 5%
Remaining activity in % (PLE 4; inhibitor 0.01 mM, 1 min): 78%
Remaining activity in % (PLE 4; inhibitor 0.01 mM, 5 min): 56%
Remaining activity in % (PLE 4; inhibitor 0.01 mM, 30 min): 7%
Remaining activity in % (PLE 4; inhibitor 0.01 mM, 60 min): 2%
Remaining activity in % (PLE 5; inhibitor 0.01 mM, 1 min): 88%
Remaining activity in % (PLE 5; inhibitor 0.01 mM, 5 min): 76%
Remaining activity in % (PLE 5; inhibitor 0.01 mM, 30 min): 24%
Remaining activity in % (PLE 5; inhibitor 0.01 mM, 60 min): 3%

CNC(=O)Oc1ccc2c(c1)[C@]1(C)CCN(C)[C@@H]1N2C [Physostigmine, physostigmine]
remaining activity at 10 µM (PLE 2; 1 min): 61%
remaining activity at 10 µM (PLE 2; 5 min): 25%
remaining activity at 10 µM (PLE 2; 30 min): 6%
remaining activity at 10 µM (PLE 1 (γ-PLE); 1 min): 41%
remaining activity at 10 µM (PLE 1 (γ-PLE); 5 min): 12%
remaining activity at 10 µM (PLE 1 (γ-PLE); 30 min): 7%

B1: PLE 1: previously disclosed γ-isoenzyme of pig liver esterase (Seq. ID No. 2), recombinant from E. coli Origami with GroEL/ES (protein)
chain: MGSSHHHHHHSSGLVPRGSHMGQPASPPVVDTAQGRVLGKYVSLEGLAQPVAVFLGVPFAKPPLGSLRFAPPQPAEPWSFVKNTTSYPPMCCQDPVVEQMTSDLFTNGKERLTLEFSEDCLYLNIYTPADLTKRGRLPVMVWIHGGGLVLGGAPMYDGVVLAAHENVVVVAIQYRLGIWGFFSTGDEHSRGNWGHLDQVAALHWVQENIANFGGDPGSVTIFGESAGGESVSVLVLSPLAKNLFHRAISESGVALTVALVRKDMKAAAKQIAVLAGCKTTTSAVFVHCLRQKSEDELLDLTLKMKFLTLDFHGDQRESHPFLPTVVDGVLLPKMPEEILAEKDFNTVPYIVGINKQEFGWLLPTMMGFPLSEGKLDQKTATSLLWKSYPIANIPEELTPVATDKYLGGTDDPVKKKDLFLDLMGDVVFGVPSVTVARQHRDAGAPTYMYEFQYRPSFSSDKKPKTVIGDHGDEIFSVFGFPLLKGDAPEEEVSLSKTVMKFWANFARSGNPNGEGLPHWPMYDQEEGYLQIGVNTQAAKRLKGEEVAFWNDLLSKEAAKKPPKIK
modifications: Pig liver
Specific activity, Ethyl acetate [1]: 38
Specific activity, Ethyl caprylate [2]: 63
Esterase activity (active bands) in native gel [3]: Active esterase bands are visible
Specific activity, Triolein [4]: 0
Volume activity [5]: 11 U/ml
E (enantioselectivity) [6]: 4
E (enantioselectivity) [7]: 17
Specific activity, Methyl butyrate [8]: 57
E (enantioselectivity) [9]: 72
Specific activity, Tributyrin [10]: 306
E (enantioselectivity) [11]: 17
